Patent US20200390755A1, “COMPOUND FOR TREATING NERVOUS SYSTEM DISEASES AND USE THEREOF” (SHAANXI MICOT TECHNOLOGY CO., LTD., priority 2018, published 2020)

Each compound was assayed on WT mice (assay: High-altitude balance beam (11 mm) experiment 1, WT mice). Conditions: 5 mg/kg/d intragastric, 12 w.
Format: in vivo, mouse
Experimental: 7-week-old N171-82Q HD male mice were paired with female B6C3F1/J hybrid mice to obtain newborn mice. From 21 days of age, male mice were housed in separate cages. 0.5 cm of mouse tail tissue was removed to extract DNA to determine the genotype of the mouse, such that N171-82Q HD mice and WT mice needed for the experiment were obtained. The mice were randomly divided into WT Vehicle group (normal mice), WT test compound group (administration group of normal mice, 5 mg/kg/d, n=10), HD Vehicle group (blank group of HD mice, n=15), HD test compound group (administration groups 1-5 of HD mice, 5 mg/kg/d, n=10). The test compound was suspended in 1% CMC-Na solution and administered by intragastric administration until the end of the study. The weights of the mice were measured every week. Behavioral tests were performed at 12 weeks, 18 weeks, and 24 weeks of age to investigate motor function. At 20 weeks, 3 samples of tissue from each group were used for western blotting and immunohistochemistry. At 24 weeks, MRI scans were performed. At the end of the study, the effect of the test compound on the mortality of mice was evaluated. The software Sigmaplot 13.0 was used for statistical analysis of the data, and the data of each group was expressed as mean standard error (x±SEM). Behavioral test results were analyzed using two-way (genotype and processing factor) ANOVA and post-ho tests, the comparison and statistics of weight data were performed using two-way (genotype and age) ANOVA of repeated measures, and mortality was counted using Kaplan-Meier method. Other measurement data were analyzed by one-way ANOVA. P<0.05 was considered statistically significant. The motor function of mice was evaluated by the rotarod experiment and three types of balance beam experiments. […] If the time for crossing the beams was greater than 60 seconds, it was recorded as 60 seconds. a round balance beam with a length of 80 cm and a diameter of 11 mm was place at a height of about 50 cm from the ground. […]

Row | SMILES | Time for crossing the beams, high-altitude balance beam (11 mm) [s]
1 | O=c1cc(-c2ccc(N3CCCCC3)cc2)oc2c(O)c(O)ccc12 [Example 1, 7,8-dihydroxy-2-(4-(piperidin-1-yl)phenyl)-4H-chromen-4-one] | 8.18 ± 1.99

Same assay, conditions: 5 mg/kg/d intragastric, 18 w

Row | SMILES | Time for crossing the beams, high-altitude balance beam (11 mm) [s]
2 | O=c1cc(-c2ccc(N3CCCCC3)cc2)oc2c(O)c(O)ccc12 [Example 1, 7,8-dihydroxy-2-(4-(piperidin-1-yl)phenyl)-4H-chromen-4-one] | 7.55 ± 2.42

Same assay, conditions: 5 mg/kg/d intragastric, 24 w

Row | SMILES | Time for crossing the beams, high-altitude balance beam (11 mm) [s]
3 | O=c1cc(-c2ccc(N3CCCCC3)cc2)oc2c(O)c(O)ccc12 [Example 1, 7,8-dihydroxy-2-(4-(piperidin-1-yl)phenyl)-4H-chromen-4-one] | 8.18 ± 4.29

The compounds below were run on N171-82Q HD mice (assay: Slope balance beam experiment, HD mice). Conditions: 5 mg/kg/d intragastric, 12 w.
Format: in vivo, mouse
Experimental: 7-week-old N171-82Q HD male mice were paired with female B6C3F1/J hybrid mice to obtain newborn mice. From 21 days of age, male mice were housed in separate cages. 0.5 cm of mouse tail tissue was removed to extract DNA to determine the genotype of the mouse, such that N171-82Q HD mice and WT mice needed for the experiment were obtained. The mice were randomly divided into WT Vehicle group (normal mice), WT test compound group (administration group of normal mice, 5 mg/kg/d, n=10), HD Vehicle group (blank group of HD mice, n=15), HD test compound group (administration groups 1-5 of HD mice, 5 mg/kg/d, n=10). The test compound was suspended in 1% CMC-Na solution and administered by intragastric administration until the end of the study. The weights of the mice were measured every week. Behavioral tests were performed at 12 weeks, 18 weeks, and 24 weeks of age to investigate motor function. At 20 weeks, 3 samples of tissue from each group were used for western blotting and immunohistochemistry. At 24 weeks, MRI scans were performed. At the end of the study, the effect of the test compound on the mortality of mice was evaluated.
The software Sigmaplot 13.0 was used for statistical analysis of the data, and the data of each group was expressed as mean standard error (x±SEM). Behavioral test results were analyzed using two-way (genotype and processing factor) ANOVA and post-ho tests, the comparison and statistics of weight data were performed using two-way (genotype and age) ANOVA of repeated measures, and mortality was counted using Kaplan-Meier method. Other measurement data were analyzed by one-way ANOVA. P<0.05 was considered statistically significant.
The motor function of mice was evaluated by the rotarod experiment and three types of balance beam experiments. The shorter the time for mouse to cross the balance beam, and the longer the time to drop, the stronger the coordination ability of the mouse.
A square balance beam with a length of 100 cm and a width of 11 mm was placed at a 45-degree angle to the horizontal ground. A black box (12×12×12 cm) was placed at the end of the balance beam, and the starting platform was illuminated by bright lights. Spacers were placed under the balance beam to provide cushioning in case that the animal falls off the beam. One hour before the test, the mice were trained to cross the beam three times at one-eighth, one-quarter, and full-length distances from the black box, respectively. If the mice stopped walking during training, they were gently pressed with long forceps on the tail to encourage movement. After the training experiment, the mice rested for at least one hour in an undisturbed environment. In the experiment, the maximum time for each mouse to cross the balance beam was set to 60 seconds. If the time for crossing the beams was greater than 60 seconds, it was recorded as 60 seconds.

Row | SMILES | Time for crossing the beams, slope balance beam [s]
4 | O=c1cc(-c2ccc(N3CCCCC3)cc2)oc2c(O)c(O)ccc12 [Example 1, 7,8-dihydroxy-2-(4-(piperidin-1-yl)phenyl)-4H-chromen-4-one] | 15.18 ± 3.95
5 | COc1ccc2c(=O)cc(-c3ccc(N4CCCCC4)cc3)oc2c1OC [Example 2, 7,8-dimethoxy-2-(4-(piperidin-1-yl)phenyl)-4H-chromen-4-one] | 17.88 ± 2.83
6 | CN(C)C1CCN(c2ccc(-c3cc(=O)c4ccc(O)c(O)c4o3)cc2)CC1 [Example 3, 2-(4-(4-(dimethylamino)piperidin-1-yl)phenyl)-7,8-dihydroxy-4H-chromen-4-one] | 13.64 ± 6.90
7 | CC1(C)CCN(c2ccc(-c3cc(=O)c4ccc(O)c(O)c4o3)cc2)CC1 [Example 4, 2-(4-(4,4-dimethylpiperidin-1-yl)phenyl)-7,8-dihydroxy-4H-chromen-4-one] | 16.78 ± 5.98
8 | CC1CC(C)CN(c2ccc(-c3cc(=O)c4ccc(O)c(O)c4o3)cc2)C1 (stereo not drawn) [Example 5, 2-(4-(3,5-dimethylpiperidin-1-yl)phenyl)-7,8-dihydroxy-4H-chromen-4-one] | 14.94 ± 6.59

Same assay, conditions: 5 mg/kg/d intragastric, 18 w

Row | SMILES | Time for crossing the beams, slope balance beam [s]
9 | O=c1cc(-c2ccc(N3CCCCC3)cc2)oc2c(O)c(O)ccc12 [Example 1, 7,8-dihydroxy-2-(4-(piperidin-1-yl)phenyl)-4H-chromen-4-one] | 14.09 ± 3.18
10 | COc1ccc2c(=O)cc(-c3ccc(N4CCCCC4)cc3)oc2c1OC [Example 2, 7,8-dimethoxy-2-(4-(piperidin-1-yl)phenyl)-4H-chromen-4-one] | 17.13 ± 4.76
11 | CN(C)C1CCN(c2ccc(-c3cc(=O)c4ccc(O)c(O)c4o3)cc2)CC1 [Example 3, 2-(4-(4-(dimethylamino)piperidin-1-yl)phenyl)-7,8-dihydroxy-4H-chromen-4-one] | 14.37 ± 5.81
12 | CC1(C)CCN(c2ccc(-c3cc(=O)c4ccc(O)c(O)c4o3)cc2)CC1 [Example 4, 2-(4-(4,4-dimethylpiperidin-1-yl)phenyl)-7,8-dihydroxy-4H-chromen-4-one] | 17.00 ± 5.65
13 | CC1CC(C)CN(c2ccc(-c3cc(=O)c4ccc(O)c(O)c4o3)cc2)C1 (stereo not drawn) [Example 5, 2-(4-(3,5-dimethylpiperidin-1-yl)phenyl)-7,8-dihydroxy-4H-chromen-4-one] | 16.67 ± 5.77

Same assay, conditions: 5 mg/kg/d intragastric, 24 w

Row | SMILES | Time for crossing the beams, slope balance beam [s]
14 | O=c1cc(-c2ccc(N3CCCCC3)cc2)oc2c(O)c(O)ccc12 [Example 1, 7,8-dihydroxy-2-(4-(piperidin-1-yl)phenyl)-4H-chromen-4-one] | 18.09 ± 6.02
15 | COc1ccc2c(=O)cc(-c3ccc(N4CCCCC4)cc3)oc2c1OC [Example 2, 7,8-dimethoxy-2-(4-(piperidin-1-yl)phenyl)-4H-chromen-4-one] | 19.00 ± 6.84
16 | CN(C)C1CCN(c2ccc(-c3cc(=O)c4ccc(O)c(O)c4o3)cc2)CC1 [Example 3, 2-(4-(4-(dimethylamino)piperidin-1-yl)phenyl)-7,8-dihydroxy-4H-chromen-4-one] | 15.43 ± 4.58
17 | CC1(C)CCN(c2ccc(-c3cc(=O)c4ccc(O)c(O)c4o3)cc2)CC1 [Example 4, 2-(4-(4,4-dimethylpiperidin-1-yl)phenyl)-7,8-dihydroxy-4H-chromen-4-one] | 18.38 ± 5.10
18 | CC1CC(C)CN(c2ccc(-c3cc(=O)c4ccc(O)c(O)c4o3)cc2)C1 (stereo not drawn) [Example 5, 2-(4-(3,5-dimethylpiperidin-1-yl)phenyl)-7,8-dihydroxy-4H-chromen-4-one] | 18.58 ± 7.34
